Common to all, as to experiment: NCI-60 cell line screen, 48 h
Experiment [1] deals with A549 NSCLC.
Experiment [2] relates to ACHN renal.
Experiment [3] concerns BT-549 breast.
Experiment [4] concerns DU-145 prostate.
The test system of experiment [5] is HCT-116 colon.
The test system of experiment [6] is HS 578T breast.
The subject of experiment [7] is M14 melanoma.
Experiment [8] concerns MDA-MB-231 breast.
Experiment [9] has as its system MDA-MB-435.
Experiment [10] relates to MDA-N.
Experiment [11] relates to SN12C renal.
Experiment [12] has as its system SNB-19 CNS.
For experiment [13], the system named is TK-10 renal.
The test system of experiment [14] is SF-268 CNS.
In experiment [15] the test system is SR leukemia.
Experiment [16] relates to DLD-1 colon.
The test system of experiment [17] is DMS 114 small cell lung.
The subject of experiment [18] is KM20L2 colon.
The test system of experiment [19] is SNB-78 CNS.
Experiment [20] deals with XF 498 CNS.

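Five compound concentrations were applied to cells in 96-well plates for 48 hours; endpoints were derived by simple linear interpolation of the resulting dose-response curve. TGI: total growth inhibition.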

In the case of `COc1ccnc2c1C(=O)c1nc3ccccc3c3ccnc-2c13`, the TGI came out at 2.02 µM in [1]; 0.41 µM in experiment [2]; 1.44 µM in experiment [3]; 0.31 µM in experiment [4]; 1.03 µM in experiment [5]; 6.44 µM in [6]. Also, the TGI in experiment [7] was 0.272 µM; in [8], 3.87 µM; in experiment [9], 1.52 µM; in experiment [10] it was 0.904 µM; in experiment [11] it was 0.535 µM; in experiment [12], 0.562 µM. In experiment [13], this molecule displayed a TGI of 1.13 µM.

On to `CCOC(=O)CC1CCN(C(=O)c2ccccc2)C2Cc3c([nH]c4ccccc34)C12C[N+](=O)[O-]` (stereo unspecified), for which the TGI in experiment [2], in experiment [3], in experiment [4], in experiment [6], in experiment [7] and in [8] was over 100 µM throughout. The TGI in experiment [9], in experiment [10], in experiment [14], in experiment [11], in [15] and in experiment [13] was over 100 µM each time.

On to `O=c1c(-c2ccccc2)c(SCCCN2CCN(c3cccc(Cl)c3)CC2)n(-c2ccccc2)c(=S)n1-c1ccccc1`, for which the TGI in experiment [2] was over 100 µM; in experiment [3], over 100 µM; in experiment [4] it was over 100 µM; in experiment [6] it was over 100 µM; in [8] it was over 100 µM; in experiment [9], 42.4 µM. Besides, the TGI in experiment [15] and in experiment [13] was over 100 µM each time.

With `CCOC(=O)c1csc(NC(=O)C(C)N2CCCCC2)n1` (stereo unspecified), the TGI in [1], in [2], in experiment [4], in experiment [7], in experiment [8] and in experiment [9] was over 100 µM in each case. Moreover, the TGI in experiment [10], in [12] and in experiment [13] was over 100 µM throughout.

Consider `COC(=O)C1OC(Oc2cc(O)c3c(=O)cc(-c4ccc(O)cc4)oc3c2)C(O)C(O)C1O` (stereo unspecified), for which the TGI in [1], in experiment [16], in experiment [17], in experiment [5], in experiment [18] and in experiment [14] was over 100 µM each time. In addition, the TGI in experiment [11], in [12], in experiment [19] and in experiment [20] was over 100 µM throughout.

`CCCCN1C=CN2c3nc4cc(C)c(C)cc4n3C(C(=O)OC)=C(C(=O)OC)C12` (stereo unspecified): the TGI in [1], in [2], in experiment [16], in experiment [17], in experiment [5] and in experiment [18] was over 100 µM in each case. Moreover, the TGI in [7], in [14], in experiment [11], in [12], in [19] and in experiment [15] was over 100 µM each time. Besides, the TGI in experiment [13] and in experiment [20] was over 100 µM in each case.

For `CN(C)C(=O)OCOC(=O)N(C)C`, the TGI in [1], in experiment [16], in experiment [17], in experiment [5], in experiment [18] and in experiment [14] was over 100 µM throughout. Moreover, the TGI in experiment [11], in experiment [12], in [19] and in [20] was over 100 µM throughout.

The values are drawn from PubChem BioAssay (NCI).
